In US8378117B2 (priority 2005, dated 2013):

How the values were obtained:
CB1 receptor = target: T1, CB1 receptor (Homo sapiens, UniProt P21554); experiment: Binding assay for CB1 agonists or inverse agonists (SK-N-MC membranes, [3H]-CP-55,940); conditions: for IC50: Cannabinoid CB1 Receptor Binding IC50, calculated by linear regression from percent inhibition at various test concentrations; for inhibition at 0.2 µM: read-out: CB1 receptor binding percent inhibition, test concentration 0.2 μM (footnote 2); for inhibition at 1 µM: read-out: CB1 receptor binding percent inhibition, test concentration 1 μM (footnote 1)
T1 construct: expressed in transfected cells
T1 sequence (P21554 whole entry): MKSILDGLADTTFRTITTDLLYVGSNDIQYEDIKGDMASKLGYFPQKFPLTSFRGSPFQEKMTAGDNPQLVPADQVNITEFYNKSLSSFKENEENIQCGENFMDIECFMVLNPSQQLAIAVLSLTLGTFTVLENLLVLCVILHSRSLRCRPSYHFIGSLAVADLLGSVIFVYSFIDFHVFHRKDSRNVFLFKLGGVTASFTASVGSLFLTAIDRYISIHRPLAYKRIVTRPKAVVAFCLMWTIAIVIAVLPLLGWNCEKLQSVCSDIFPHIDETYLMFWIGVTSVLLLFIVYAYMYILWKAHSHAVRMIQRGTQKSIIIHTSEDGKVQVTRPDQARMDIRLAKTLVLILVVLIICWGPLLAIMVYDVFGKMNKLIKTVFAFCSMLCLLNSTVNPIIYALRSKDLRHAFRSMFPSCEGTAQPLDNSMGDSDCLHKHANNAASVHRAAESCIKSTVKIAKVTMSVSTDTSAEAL
Method: (§1) The human CB1 and CB2 receptors were stably expressed in SK-N-MC cells transfected with pcDNA3 CB-1 (human) or pcDNA3 CB-2 (human). The cells were grown in T-180 cell culture flasks under standard cell culture conditions at 37° C. in a 5% CO2 atmosphere. The cells were harvested by trysinization and homogenized in a homogenization buffer (10 mM Tris, 0.2 mM MgCl2, 5 mM KCl, with protease inhibitors aprotinin, leupeptin, pepstatin A and bacitracin) and centrifuged (2000 g). The supernatant was then centrifuged in 2M sucrose (31,300 g) to produce a semi-purified membrane pellet. The pellet was resuspended in homogenization and stored at −80° C.
(§2) On the day of the assay, the pellet was thawed on ice and diluted in assay buffer (50 mM Tris-HCl, 5 mM MgCl2, 2.5 mM EDTA, 0.5 mg/mL fatty acid free bovine serum aldumin, pH 7.5). The diluted membrane pellet was added with buffer, either a test compound or vehicle standard and the radioligand [H]^3+-CP-55,940 (0.2 mM) to the wells of a 96-well polypropylene plate. Non-specific binding was measured in wells containing WIN 55,212 (10 uM). The plate was covered and incubated for 90 minutes at 30° C. The contents were then aspirated onto a Packard Unifilter GF/C filter bottom plate prewet with 0.5% polyethyleneimine. The wells of the polypropylene plate were rinsed and aspirated seven times with a 0.9% saline-0.5% Tween 20 solution. The Unifilter plate was dried, a scintillation cocktail was added to each well and the counts representing binding were quantitated in a TopCount scintillation counter.
(§3) For compounds tested, an IC50 binding value was obtained from percent inhibition studies in which various test concentrations were used. The binding value was calculated by linear regression.

CB2 receptor = target: T2, CB2 receptor (Homo sapiens, UniProt P34972); experiment: Binding assay for CB2 agonists or inverse agonists (SK-N-MC membranes, [3H]-CP-55,940); conditions: for IC50: Cannabinoid CB2 Receptor Binding IC50, calculated by linear regression from percent inhibition at various test concentrations
T2 construct: expressed in transfected cells
T2 sequence (P34972 whole entry): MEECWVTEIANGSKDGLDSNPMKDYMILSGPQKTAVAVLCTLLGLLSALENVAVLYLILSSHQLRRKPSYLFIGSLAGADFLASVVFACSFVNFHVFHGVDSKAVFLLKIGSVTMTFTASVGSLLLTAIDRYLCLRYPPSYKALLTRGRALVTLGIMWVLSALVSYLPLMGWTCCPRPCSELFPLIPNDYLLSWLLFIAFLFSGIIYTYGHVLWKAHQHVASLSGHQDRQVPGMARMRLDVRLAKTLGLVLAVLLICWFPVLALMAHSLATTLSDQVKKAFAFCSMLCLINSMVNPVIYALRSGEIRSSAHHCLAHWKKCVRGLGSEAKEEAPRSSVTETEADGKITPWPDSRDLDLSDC
Method: as §1
as §2, with “The diluted membrane pellet was added with buffer, either a test compound or vehicle standard and the radioligand [H]^3+-CP-55,940 (0.2 mM) to the wells of a 96-well polypropylene plate. Non-specific binding was measured in wells containing WIN 55,212 (10 uM).” left out
as §3

[1] = test concentration 0.2 μM (footnote 2), read-out: CB2 receptor binding percent inhibition

O=C(NN1CCCCC1)c1n[nH]c2c1CCCC/C2=C\c1ccc(Cl)cc1 [Cpd 144, (8E)-8-(4-chloro-benzylidene)-1,4,5,6,7,8-hexahydro-cycloheptapyrazole-3-carboxylic acid piperidin-1-ylamide]
IC50 (CB1 receptor): 30 nM
inhibition at 0.2 µM (CB1 receptor): 69%
CB2 receptor binding percent inhibition (CB2 receptor; test concentration 0.2 μM (footnote 2)): ^(2)90%

Cn1nc(/C=C/S(=O)(=O)NN2CCOCC2)c2c1C(Cc1cccc(F)c1)CCCC2 (centres unmarked) [Cpd 125, (2E)-2-[8-(3-fluoro-benzyl)-1-methyl-1,4,5,6,7,8-hexahydro-cycloheptapyrazol-3-yl]-ethenesulfonic acid morpholin-4-ylamide]
inhibition at 1 µM (CB1 receptor): 0%
CB2 receptor binding percent inhibition (CB2 receptor; test concentration not stated): 30%

O=S(=O)(/C=C/c1nn(-c2ccc(F)cc2F)c2c1CCCCC2Cc1ccc(F)cc1)NN1CCOCC1 (centres unmarked) [Cpd 127, (2E)-2-[1-(2,4-difluoro-phenyl)-8-(4-fluoro-benzyl)-1,4,5,6,7,8-hexahydro-cycloheptapyrazol-3-yl]-ethenesulfonic acid morpholin-4-ylamide]
inhibition at 1 µM (CB1 receptor): 36%
CB2 receptor binding percent inhibition (CB2 receptor; test concentration not stated): 0%

C[C@H](NS(=O)(=O)/C=C/c1nn(C)c2c1CCCCC2Cc1ccc(F)cc1)c1ccccc1 (stereo partly drawn) [Cpd 101, (2E)-2-[8-(4-fluoro-benzyl)-1-methyl-1,4,5,6,7,8-hexahydro-cycloheptapyrazol-3-yl]-ethenesulfonic acid [(1S)-1-phenyl-ethyl]-amide]
inhibition at 1 µM (CB1 receptor): 28%
IC50 (CB2 receptor): 40 nM
inhibition at 1 µM (CB2 receptor; test concentration 1 μM (footnote 1), read-out: CB2 receptor binding percent inhibition): 97%

O=C(NN1CCCCC1)c1nn(C2CCCCC2)c2c1CCCCC2Cc1cccc(F)c1 (centres unmarked) [Cpd 50, 1-cyclohexyl-8-(3-fluoro-benzyl)-1,4,5,6,7,8-hexahydro-cycloheptapyrazole-3-carboxylic acid piperidin-1-ylamide]
inhibition at 1 µM (CB1 receptor): 32%
CB2 receptor binding percent inhibition (CB2 receptor; test concentration not stated): 31%

COC(=O)[C@H](Cc1ccc(F)cc1)NC(=O)c1nn(C2CCCCC2)c2c1CCCCC2Cc1cccc(F)c1 (stereo partly drawn) [Cpd 73, (2S)-2-{[1-cyclohexyl-8-(3-fluoro-benzyl)-1,4,5,6,7,8-hexahydro-cycloheptapyrazole-3-carbonyl]-amino}-3-(4-fluoro-phenyl)-propionic acid methyl ester]
CB1 receptor binding average percent inhibition (CB1 receptor; value shown is an average percent inhibition (footnote 5), concentration not given): ^(5)24%
CB2 receptor binding percent inhibition (CB2 receptor; test concentration not stated): 8%

CCOC(=O)[C@H]1C2C=CC(C2)[C@H]1NC(=O)c1nn(C2CCCCC2)c2c1CCCCC2Cc1ccc(F)cc1 (stereo partly drawn) [Cpd 88, (2S,3R)-3-{[1-cyclohexyl-8-(4-fluoro-benzyl)-1,4,5,6,7,8-hexahydro-cycloheptapyrazole-3-carbonyl]-amino}-bicyclo[2.2.1]hept-5-ene-2-carboxylic acid ethyl ester]
inhibition at 1 µM (CB1 receptor): 2%
CB2 receptor binding percent inhibition (CB2 receptor; test concentration not stated): 32%

O=C(NC1CC1)c1nn(C2CCCCC2)c2c1CCCCC2Cc1ccc(F)cc1 (centres unmarked) [Cpd 56, 1-cyclohexyl-8-(4-fluoro-benzyl)-1,4,5,6,7,8-hexahydro-cycloheptapyrazole-3-carboxylic acid cyclopropylamide]
inhibition at 1 µM (CB1 receptor): 0%
CB2 receptor binding percent inhibition (CB2 receptor; test concentration not stated): 42%

O=C(NC1CCC1)c1nn(C2CCCCC2)c2c1CCCCC2Cc1ccccc1Cl (centres unmarked) [Cpd 23, 8-(2-chloro-benzyl)-1-cyclohexyl-1,4,5,6,7,8-hexahydro-cycloheptapyrazole-3-carboxylic acid cyclobutylamide]
inhibition at 1 µM (CB1 receptor): 0%
CB2 receptor binding percent inhibition (CB2 receptor; test concentration not stated): 24%

O=C(NN1CCCCC1)c1nn(-c2ccccc2Cl)c2c1CCCC/C2=C\c1ccc(Cl)cc1 [Cpd 193, (8E)-8-(4-chloro-benzylidene)-1-(2-chloro-phenyl)-1,4,5,6,7,8-hexahydro-cycloheptapyrazole-3-carboxylic acid piperidin-1-ylamide]
inhibition at 0.2 µM (CB1 receptor): 43%
inhibition at 0.2 µM (CB2 receptor; [1]): 16%

CC12CCC(C1)C(C)(C)[C@H]2NC(=O)c1nn(Cc2ccccc2)c2c1CCCCC2c1ccccc1 (stereo partly drawn) [Cpd 47, 1-benzyl-8-phenyl-1,4,5,6,7,8-hexahydro-cycloheptapyrazole-3-carboxylic acid [(2S)-1,3,3-trimethyl-bicyclo[2.2.1]hept-2-yl]-amide]
IC50 (CB1 receptor): 100 nM
inhibition at 1 µM (CB1 receptor): 91%
IC50 (CB2 receptor): 30 nM
CB2 receptor binding percent inhibition (CB2 receptor; test concentration 1 μM (footnote 1)): 94%

O=C(N[C@H](CCl)c1ccccc1)c1nn(-c2ccc(F)cc2F)c2c1CCCCC2Cc1cccc(F)c1 (stereo partly drawn) [Cpd 169, 1-(2,4-difluoro-phenyl)-8-(3-fluoro-benzyl)-1,4,5,6,7,8-hexahydro-cycloheptapyrazole-3-carboxylic acid [(1S)-2-chloro-1-phenyl-ethyl]-amide]
inhibition at 0.2 µM (CB1 receptor): 24%
inhibition at 0.2 µM (CB2 receptor; [1]): 14%

O=C(NCc1ccc(C(F)(F)F)cc1)c1nn(C2CCCCC2)c2c1CCCCC2Cc1ccc(F)cc1 (centres unmarked) [Cpd 65, 1-cyclohexyl-8-(4-fluoro-benzyl)-1,4,5,6,7,8-hexahydro-cycloheptapyrazole-3-carboxylic acid 4-trifluoromethyl-benzylamide]
inhibition at 1 µM (CB1 receptor): 29%
CB2 receptor binding percent inhibition (CB2 receptor; test concentration not stated): 52%

O=C(NC1CCC1)c1nn(C2CCCCC2)c2c1CCCCC2Cc1cccc(Cl)c1 (centres unmarked) [Cpd 36, 8-(3-chloro-benzyl)-1-cyclohexyl-1,4,5,6,7,8-hexahydro-cycloheptapyrazole-3-carboxylic acid cyclobutylamide]
inhibition at 1 µM (CB1 receptor): 25%
CB2 receptor binding percent inhibition (CB2 receptor; test concentration not stated): 0%

O=C(NCC(F)(F)F)c1nn(Cc2ccccc2)c2c1CCCCC2c1ccccc1 (centres unmarked) [Cpd 86, 1-benzyl-8-phenyl-1,4,5,6,7,8-hexahydro-cycloheptapyrazole-3-carboxylic acid (2,2,2-trifluoro-ethyl)-amide]
inhibition at 0.25 µM (CB1 receptor; read-out: CB1 receptor binding percent inhibition, test concentration 0.25 μM (footnote 8)): 0%
inhibition at 0.25 µM (CB2 receptor; test concentration 0.25 μM (footnote 8), read-out: CB2 receptor binding percent inhibition): 22%

C[C@@H](NC(=O)c1nn(-c2ccc(F)cc2F)c2c1CCCCC2Cc1cccc(F)c1)c1ccccc1 (stereo partly drawn) [Cpd 173, 1-(2,4-difluoro-phenyl)-8-(3-fluoro-benzyl)-1,4,5,6,7,8-hexahydro-cycloheptapyrazole-3-carboxylic acid [(1R)-1-phenyl-ethyl]-amide]
inhibition at 0.2 µM (CB1 receptor): 32%
inhibition at 0.2 µM (CB2 receptor; [1]): 19%

O=C(NN1CCOCC1)c1n[nH]c2c1CCCC/C2=C\c1ccc(Cl)cc1 [Cpd 145, (8E)-8-(4-chloro-benzylidene)-1,4,5,6,7,8-hexahydro-cycloheptapyrazole-3-carboxylic acid morpholin-4-ylamide]
inhibition at 0.2 µM (CB1 receptor): 54%
inhibition at 0.2 µM (CB2 receptor; [1]): 68%

O=C(NC12CC3CC(CC(C3)C1)C2)c1nn(C2CCCCC2)c2c1CCCCC2Cc1cccc(Cl)c1 (centres unmarked) [Cpd 19, 8-(3-chloro-benzyl)-1-cyclohexyl-1,4,5,6,7,8-hexahydro-cycloheptapyrazole-3-carboxylic acid adamantan-1-ylamide]
inhibition at 1 µM (CB1 receptor): 18%
CB2 receptor binding percent inhibition (CB2 receptor; test concentration not stated): 51%

O=C(NC1C2CC3CC(C2)CC1C3)c1nn(C2CCCCC2)c2c1CCCCC2Cc1ccc(Cl)cc1 (centres unmarked) [Cpd 16, 8-(4-chloro-benzyl)-1-cyclohexyl-1,4,5,6,7,8-hexahydro-cycloheptapyrazole-3-carboxylic acid adamantan-2-ylamide]
inhibition at 1 µM (CB1 receptor): 21%
CB2 receptor binding percent inhibition (CB2 receptor; test concentration not stated): 68%

NS(=O)(=O)c1ccc(NC(=O)c2nn(-c3ccc(Cl)cc3Cl)c3c2CCCC/C3=C\c2ccc(Cl)cc2)cc1 [Cpd 154, (8E)-8-(4-chloro-benzylidene)-1-(2,4-dichloro-phenyl)-1,4,5,6,7,8-hexahydro-cycloheptapyrazole-3-carboxylic acid (4-sulfamoyl-phenyl)-amide]
inhibition at 0.2 µM (CB1 receptor): 33%
inhibition at 0.2 µM (CB2 receptor; [1]): 7%
